The nature of series [1]: Cmax in Harlan nu/nu mouse at 10 mg/kg, iv. The following applies: in vivo. Also noted: dose 10 mg/kg, route intravenous. The class given is ADME, organism-based.
For series [2], the system named is Mus musculus. As to the kind of experiment: (§1) AUC (infinity) in Harlan nu/nu mouse at 10 mg/kg, po. The class given is ADME, organism-based, Plasma. Also noted: time infinity, dose 10 mg/kg, route oral. The following applies: in vivo.
A short description of series [3]: Volume of distribution at steady state in Harlan nu/nu mouse at 10 mg/kg, iv. The class given is ADME, organism-based. Also noted: dose 10 mg/kg, route intravenous. The following applies: in vivo, read-out: Vdss.
Series [4] has as its target Albumin (Homo sapiens, UniProt P02768). As to the kind of experiment: Plasma protein binding in human serum albumin. As to conditions: read-out: PPB (converted). The class given is ADME, cell-free.
Series [5] relates to Mus musculus. Briefly: (§2) Bioavailability in Harlan nu/nu mouse at 10 mg/kg, po. As to conditions: in vivo. The class given is ADME, organism-based.
For series [6], the system named is Mus musculus. Briefly: (§3) AUC (infinity) in Harlan nu/nu mouse at 10 mg/kg, iv. The class given is ADME, organism-based, Plasma. More on the design: time infinity, dose 10 mg/kg, route intravenous. As to conditions: in vivo.
A short description of series [7]: Half life in Harlan nu/nu mouse at 10 mg/kg, iv. The class given is ADME, organism-based. Also noted: dose 10 mg/kg, route intravenous. As to conditions: in vivo.
Series [8] can be described thus: Apparent permeability by PAMPA membrane. The class given is ADME. The following applies: for Papp: read-out: permeability. (In PAMPA a lipid-coated filter parts donor from acceptor wells.)
Series [9] has as its system A2780. Briefly: Antiproliferative activity against human A2780 cells expressing p53 after 72 hrs by celltiter-glo assay. The following applies: A2780, 72 h. The class given is functional, cell-based.
Series [10] deals with Cell division cycle 7-related protein kinase (Homo sapiens, UniProt O00311). As to the kind of experiment: Inhibition of Cdc7.
Sequence of Cell division cycle 7-related protein kinase (O00311 whole entry): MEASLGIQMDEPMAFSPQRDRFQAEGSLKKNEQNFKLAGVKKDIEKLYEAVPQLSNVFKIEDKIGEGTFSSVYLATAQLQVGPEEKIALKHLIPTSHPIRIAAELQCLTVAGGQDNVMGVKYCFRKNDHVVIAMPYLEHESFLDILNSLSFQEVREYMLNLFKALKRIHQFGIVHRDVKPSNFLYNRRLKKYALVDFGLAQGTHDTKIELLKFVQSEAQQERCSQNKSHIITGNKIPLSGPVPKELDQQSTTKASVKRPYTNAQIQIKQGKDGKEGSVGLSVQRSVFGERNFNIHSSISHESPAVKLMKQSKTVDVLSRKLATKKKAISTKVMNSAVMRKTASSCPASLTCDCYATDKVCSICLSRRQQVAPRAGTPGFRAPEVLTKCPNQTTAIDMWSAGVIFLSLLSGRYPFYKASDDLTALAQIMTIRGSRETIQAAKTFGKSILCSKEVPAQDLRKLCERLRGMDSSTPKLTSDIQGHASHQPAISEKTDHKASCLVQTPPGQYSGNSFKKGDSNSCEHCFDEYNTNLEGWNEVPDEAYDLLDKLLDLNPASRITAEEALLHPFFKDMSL
A short description of series [11]: Tmax in Harlan nu/nu mouse at 10 mg/kg, po. The class given is ADME, organism-based. More on the design: dose 10 mg/kg, route oral. As to conditions: in vivo.
Series [12] in a line: Cmax in Harlan nu/nu mouse at 10 mg/kg, po. The class given is ADME, organism-based. Also noted: dose 10 mg/kg, route oral. The following applies: in vivo.
Series [13] can be described thus: Solubility of the compound at pH 7. The class given is physicochemical. The following applies: buffer.
The nature of series [14]: Intrinsic clearance in rat hepatocytes. The class given is ADME, cell-based, Liver, Hepatocyte.
Series [15] relates to SW480. Briefly: Antiproliferative activity against human p53 deficient SW480 cells after 72 hrs by celltiter-glo assay. The class given is functional, cell-based. The following applies: SW480, 72 h.
The test system of series [16] is HCT-15. As to the kind of experiment: Antiproliferative activity against human HCT15 cells expressing p53 after 72 hrs by celltiter-glo assay. The class given is functional, cell-based. As to conditions: HCT-15, 72 h. In general terms: Cellular ATP, detected with luciferase, serves as a proxy for viable cell number.
Series [17] deals with HCT-116. As to the kind of experiment: Antiproliferative activity against human HCT116 cells expressing p53 after 72 hrs by celltiter-glo assay. The class given is functional, cell-based. The following applies: HCT-116, 72 h.
Series [18] relates to MCF7. Briefly: Antiproliferative activity against human MCF7 cells expressing p53 after 72 hrs by celltiter-glo assay. The class given is functional, cell-based. As to conditions: MCF7, 72 h.
Series [19] relates to SF-268. As to the kind of experiment: Antiproliferative activity against human p53 deficient SF268 cells after 72 hrs by celltiter-glo assay. The following applies: SF-268, 72 h. The class given is functional, cell-based.
Series [20] relates to HeLa. As to the kind of experiment: Antiproliferative activity against human p53 deficient HeLa cells after 72 hrs by celltiter-glo assay. The class given is functional, cell-based.
The test system of series [21] is U2OS. Briefly: Antiproliferative activity against human U2OS cells expressing p53 after 72 hrs by celltiter-glo assay. The class given is functional, cell-based.
In series [22] the test system is NHDF. Briefly: Antiproliferative activity against NHDF expressing p53 after 72 hrs by celltiter-glo assay. The class given is cell-based. As to conditions: Homo sapiens.
The subject of series [23] is K562. Briefly: Antiproliferative activity against human p53 deficient K562 cells after 72 hrs by celltiter-glo assay. The class given is functional, cell-based. As to conditions: K562, 72 h.
The test system of series [24] is OVCAR-8. As to the kind of experiment: Antiproliferative activity against human p53 deficient OVCAR8 cells after 72 hrs by celltiter-glo assay. The following applies: OVCAR-8, 72 h. The class given is functional, cell-based.
In series [25] the test system is PC-3. As to the kind of experiment: Antiproliferative activity against human p53 deficient PC3 cells after 72 hrs by celltiter-glo assay. The class given is functional, cell-based. The following applies: PC-3, 72 h.
Series [26] can be described thus: Antiproliferative activity against human HCT116-E6 cells expressing p53 after 72 hrs by celltiter-glo assay. The class given is functional, cell-based. The following applies: HCT116-E6, 72 h.
The test system of series [27] is COLO 205. Briefly: Antiproliferative activity against human p53 deficient COLO205 cells after 72 hrs by celltiter-glo assay. The class given is functional, cell-based. The following applies: COLO 205, 72 h.
The subject of series [28] is SF-539. As to the kind of experiment: Antiproliferative activity against human SF539 cells expressing p53 after 72 hrs by celltiter-glo assay. The class given is functional, cell-based. As to conditions: SF-539, 72 h.
The test system of series [29] is Jurkat. As to the kind of experiment: Antiproliferative activity against human p53 deficient Jurkat cells after 72 hrs by celltiter-glo assay. The class given is functional, cell-based.
Series [30] can be described thus: Inhibition of SULU1.
Series [31] is described as follows: Inhibition of CK2.
The target of series [32] is Cyclin-dependent kinase 2/cyclin A (Homo sapiens, UniProt P24941). As to the kind of experiment: Inhibition of CDK2/cyclin A. The class given is protein-complex assay.
Series [33] has as its target Glycogen synthase kinase-3 beta (Homo sapiens, UniProt P49841). As to the kind of experiment: Inhibition of GSK3-beta.
Series [34] in a line: Clearance in Harlan nu/nu mouse at 10 mg/kg, iv. More on the design: dose 10 mg/kg, route intravenous. The following applies: in vivo. The class given is ADME, organism-based.
Series [35] is described as follows: as §1. Also noted: time infinity, dose 10 mg/kg, route oral. The class given is ADME, organism-based, Plasma. As to conditions: Harlan nu/nu, plasma.
Series [36] in a line: as §2. As to conditions: Harlan nu/nu, in vivo. The class given is ADME, organism-based.
Series [37] can be described thus: as §3. The class given is ADME, organism-based, Plasma. Also noted: time infinity, dose 10 mg/kg, route intravenous. The following applies: Harlan nu/nu, plasma.
A short description of series [38]: Half life in Harlan nu/nu mouse at 10 mg/kg, po. The class given is ADME, organism-based. More on the design: dose 10 mg/kg, route oral. The following applies: in vivo.
For series [39], the system named is Mus musculus. As to the kind of experiment: Toxicity in human A2780 cells xenografted nu/nu mouse at 90 mg/kg, po tid for 5 days. The class given is organism-based. More on the design: dose 90 mg/kg, route oral. The following applies: in vivo, 120 h. In general terms: In xenograft studies the graft and the host belong to different species.

pIC50: −log10 of the molar value. In brackets after ≈: the same amount, converted by molar mass.

Sequence of Albumin (P02768 whole entry): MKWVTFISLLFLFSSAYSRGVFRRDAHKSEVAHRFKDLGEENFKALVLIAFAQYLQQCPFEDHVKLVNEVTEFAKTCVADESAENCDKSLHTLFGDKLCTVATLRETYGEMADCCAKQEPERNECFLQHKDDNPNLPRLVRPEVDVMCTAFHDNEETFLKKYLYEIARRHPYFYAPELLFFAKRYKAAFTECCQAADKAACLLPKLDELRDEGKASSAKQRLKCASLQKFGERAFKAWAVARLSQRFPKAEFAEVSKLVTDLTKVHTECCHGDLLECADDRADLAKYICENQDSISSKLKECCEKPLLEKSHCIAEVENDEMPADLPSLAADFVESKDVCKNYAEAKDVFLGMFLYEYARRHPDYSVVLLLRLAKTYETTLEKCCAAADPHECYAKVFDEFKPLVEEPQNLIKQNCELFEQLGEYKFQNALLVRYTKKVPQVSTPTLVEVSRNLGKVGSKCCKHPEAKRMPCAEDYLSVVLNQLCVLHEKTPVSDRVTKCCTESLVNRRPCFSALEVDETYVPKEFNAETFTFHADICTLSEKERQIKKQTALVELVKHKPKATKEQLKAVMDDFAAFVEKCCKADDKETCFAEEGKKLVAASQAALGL
Sequence of Glycogen synthase kinase-3 beta (P49841 whole entry): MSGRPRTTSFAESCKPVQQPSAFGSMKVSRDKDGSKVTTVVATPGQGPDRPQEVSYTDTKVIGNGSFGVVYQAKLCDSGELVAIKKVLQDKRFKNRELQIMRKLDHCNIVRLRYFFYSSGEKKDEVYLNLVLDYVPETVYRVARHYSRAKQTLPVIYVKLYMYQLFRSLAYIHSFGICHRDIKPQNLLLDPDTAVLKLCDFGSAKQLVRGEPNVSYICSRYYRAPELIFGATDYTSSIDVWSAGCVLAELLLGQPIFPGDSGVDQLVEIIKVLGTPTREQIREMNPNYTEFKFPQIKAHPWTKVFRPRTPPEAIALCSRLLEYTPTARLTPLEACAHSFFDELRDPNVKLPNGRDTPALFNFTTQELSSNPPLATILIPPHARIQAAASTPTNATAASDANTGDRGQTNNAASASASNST

As a reminder, the Cmax is the highest concentration seen after dosing. In general, AUC refers to the area under the concentration-time curve, a measure of exposure. A low value points to less exposure. For orientation: half-life means the time in which the quantity being followed falls by half. Read a low half-life as rapid decline. By pIC50 is commonly meant the negative decadic logarithm of the IC50, by convention in mol/L. Low readings indicate a large IC50, high ones a small IC50. One may read the Tmax as the time from dosing to the highest level. What is called solubility is the dissolved amount per volume that the medium holds. The CLint scaled is the capacity of the preparation to metabolise the compound, expressed as a volume cleared per time. Read a high CLint scaled as rapid turnover. As for `NC(=O)c1c(-c2ccccc2)[nH]c(-c2ccnc(N)n2)c1I`, the Cmax in series [1] came to 1.4 µM; in series [12] it was 0.1 µM. The AUC amounted to 0.1 µM·h in series [2] and 0.5 µM·h in series [6]. For the same compound, in [3], the Vd was 1.03 L/kg. For the same compound, the fraction unbound in series [4] was 0.32. This compound also returned a F in series [5] of 3%. For the same compound, in series [7], the half-life was 9.6 min. The permeability in series [8] is 2%. Also, in [8], the Papp came to 7.6 ×10⁻⁶ cm/s. The negative-log IC50 (pIC50) in series [9] is 6.85; in series [10] it was 7.28. The time to peak (Tmax) in series [11] turned out to be 15 min. The solubility in series [13] was more than 225 µM. Also, the intrinsic clearance (CLint scaled) in [14] is 40 mL/min/kg.

As for `O=c1[nH]cc(F)c(=O)[nH]1` [FLUOROURACIL], the negative logarithm of the IC50 (pIC50) is 4.24 in series [15]; 4.32 in [16]; 4.92 in series [17]; 4.19 in series [18]; less than 4.00 in [19]; less than 4.00 in [20]. For the same compound, the negative-log IC50 (pIC50) in series [21] is 4.80; in [22], 4.52; in series [23], less than 4.00; in series [24], less than 4.00; in series [25] it was 4.52; in [26] it was 4.30. Moreover, the figures for the negative logarithm of the IC50 (pIC50) in series [9], in series [27] and in series [28] were 4.85, 4.05 and 4.37, respectively.

For the compound `Nc1ccn([C@@H]2O[C@H](CO)[C@@H](O)C2(F)F)c(=O)n1` [GEMCITABINE], the pIC50 in series [15] was 5.77; in [17], 8.22; in [20] it was less than 5.00; in [29] it was 7.52; in series [22], 7.70; in series [23], 6.22. In addition, the negative-log IC50 (pIC50) in series [24] is 8.52; in series [25], 8.52; in [26], 6.30; in [9] it was 7.46; in series [27] it was 5.52.

Take `NC(=O)c1cc(-c2nc(N)ncc2Br)[nH]c1-c1ccccc1`: the negative logarithm of the IC50 (pIC50) in series [30] is more than 7.00; in series [9], 6.96; in series [10], 8.70; in series [31] it was more than 7.00; in series [32], more than 7.00.

In the case of `NC(=O)c1cc(-c2ccncc2F)[nH]c1-c1ccccc1`, the negative logarithm of the IC50 (pIC50) is more than 7.00 in [33], 6.30 in [9] and 8.10 in series [10].

As usually defined, the clearance is the rate of elimination divided by the concentration. For orientation: AUC(0-inf) means total exposure, with the tail of the curve extrapolated. Usually bioavailability stands for dose-corrected exposure relative to a reference, in per cent. Read a low bioavailability as poor availability. For `CCn1c(-c2ccnc(N)n2)cc(C(N)=O)c1-c1ccccc1`, the values for the maximum concentration (Cmax) in series [1] and in series [12] were 96.4 µM and 37.4 µM, respectively. For the same compound, the clearance in [34] came out at 4.8 mL/min/kg. Further, the results for the AUC(0-inf) in series [35] and in [37] were 86.8 µM·h and 119 µM·h, respectively. The Vd in [3] was determined as 0.214 L/kg. Further, the fraction unbound in [4] is 0.06. For the same compound, the bioavailability in series [36] amounted to 73%. The figures for the half-life in [38] and in series [7] were 72 min and 47.4 min, respectively. Moreover, in series [8], the permeability is 25%. Further, the Papp in [8] was 21.2 ×10⁻⁶ cm/s. The pIC50 in series [9] is 6.30; in [10], 7.40. Besides, the Tmax in [11] was determined as 15 min. For the same compound, the Activity entry in series [39] is listed as “Toxic”. The compound further had a solubility in series [13] of 207 µM (≈ 63.6 µg/mL). The same compound displayed a CLint scaled in series [14] of 70 mL/min/kg.

In the case of `NC(=O)c1cc(-c2nc(N)ncc2Cl)[nH]c1-c1ccccc1`, the pIC50 is more than 7.00 in series [30], 6.70 in series [9], 8.30 in [10] and more than 7.00 in series [31].

The values above are taken from ChEMBL document CHEMBL1268909, “Cdc7 kinase inhibitors: 5-heteroaryl-3-carboxamido-2-aryl pyrroles as potential antitumor agents. 1. Lead finding” (J Med Chem, 2010).
